Experiment [1] relates to Candida albicans strains. Briefly: Example N: MIC and MFC (CLSI) against Candida albicans. Format: cell-based. The settings on record: Candida albicans, three clinical strains; for MIC: read-out: MIC 100%, Range. How it is done: (§1) The objective of this study was to determine the antifungal activity of eight experimental compounds against a representative panel of fungal isolates, including Candida albicans, C. glabrata, Cryptococcus neoformans, Trichophyton rubrum, Aspergillus fumigatus, and Rhizopus spp. Antifungal activity was measured by minimum inhibitory concentration (MIC) and minimum fungicidal concentration (MFC).
(§2) Three recent clinical strains of each species, taken from the culture collection at the Center for Medical Mycology, Case Western University, were tested.
(§3) Compounds in powder form were dissolved in DMSO. Serial dilutions of each compound were then prepared in RPMI-1640 in a range of […].
(§4) MIC testing was performed according to the CLSI M27-A3 and M38-A2 standards for the susceptibility testing of yeasts and filamentous fungi, respectively (1, 2). Test isolates were subcultured from frozen slants onto potato dextrose agar plates (Trichophyton rubrum was subcultured onto oatmeal plates for conidia production) and checked for purity. Inocula were then prepared in RPMI-1640 (YNB for Cryptococcus) to a concentration of 0.5-2.5×10^3 colony-forming units (CFU)/ml or 0.4-5×10^4 conidia/ml for yeast and filamentous fungi, respectively.
(§5) MFC determinations were performed according to the modifications previously described by Canton et al. and Ghannoum and Isham. (3, 4) Specifically, the total contents of each clear well from the MIC assay were subcultured onto potato dextrose agar. To avoid antifungal carryover, the aliquots were allowed to soak into the agar and then were streaked for isolation once dry, thus removing the cells from the drug source.

The subject of experiment [2] is Candida glabrata strains. Briefly: Example N: MIC and MFC (CLSI) against Candida glabrata. The settings on record: Nakaseomyces glabratus; for MIC: read-out: MIC 100%; for MFC: range over Candida glabrata strains, in 48 hr. Format: cell-based. How it is done:
as §1, §2, §3, §4, §5

For experiment [3], the system named is Cryptococcus neoformans strains. In words: Example N: MIC and MFC (CLSI) against Cryptococcus neoformans. Format: cell-based. Details: MIC at 50% inhibition: unit not given here. The settings on record: for MIC / MFC: Cryptococcus neoformans, three clinical strains; for MIC: read-out: MIC 100%, Range, incubated for 72 hrs. How it is done:
as §1, §2, §3, §4, §5

Experiment [4] concerns Aspergillus fumigatus strains. Briefly: Example N: MIC and MFC (CLSI) against Aspergillus fumigatus. The experiment is classed as cell-based. The settings on record: for MIC50 / MIC: Aspergillus fumigatus; for MIC: read-out: MIC 100%; for MFC: range over Aspergillus fumigatus strains, in 48 hr. How it is done:
as §1, §2, §3, §4, §5

Experiment [5] deals with Rhizopus strains. In words: Example N: MIC and MFC (CLSI) against Rhizopus. Format: cell-based, Rhizopus spp. The settings on record: for MIC50 / MIC: Rhizopus; for MIC: read-out: MIC 100%. How it is done:
as §1, §2, §3, §4, §5

Experiment [6] deals with Trichophyton rubrum strains. Briefly: Example N: MIC and MFC (CLSI) against Trichophyton rubrum. The experiment is classed as cell-based. The settings on record: for MIC: read-out: MIC 100%, Range, incubated for 96 hrs, three clinical strains; for MFC: three clinical strains. How it is done:
as §1, §2, §3, §4, §5

Experiment [7] deals with THP-1 cells. Briefly: Example C: compound screen, viable THP-1 cell count after 5 hours +/- LPS. Format: cell-based, Human. The text has this: Background: THP-1 is a human acute myeloid leukemia (AML) cell line that can be induced into a macrophage-like cell with vitamin-D3 (vit-D3). In the macrophage, LPS (lipopolysaccharide; endotoxin) stimulation of toll-like receptor 4 (TLR-4) leads to NF-κB activation and secretion of inflammatory cytokines but also the priming of programmed death pathways through RIP and Caspase 8. The balance of this complex regulatory network is dependent on highly specific kinases, enzymes that require ATP. Disruption of either cytosolic pH or ATP availability/energy level uncouples this control network and the can macrophage shift away from production of inflammatory cytokines towards a programmed death event, which has the net effect of limiting inflammatory damage.

Structures are written as SMILES. ≈ marks a conversion by molar mass, not a printed value. Like-named read-outs stand apart in the source and are kept apart here. Some results are limits rather than exact numbers.

One may read the MIC as the smallest concentration in the dilution series that meets the test's criterion for growth inhibition. The term MIC50 denotes an inhibitory concentration at the 50% level, which refers to growth in some studies and to a panel of isolates in others.

`CCCCCCOCCCCCCCCNc1ccnc2cc(Cl)ccc12` [AW, 7-Chloro-N-[8-(hexyloxy)octyl]quinolin-4-amine]: the MIC is 4 to 8 µg/mL (≈ 10.2 to 20.5 µM) in experiment [1] (24 hr); 8 µg/mL (≈ 20.5 µM) in experiment [1] (48 hr); 8 µg/mL (≈ 20.5 µM) in experiment [2] (24 h); 8 to 16 µg/mL (≈ 20.5 to 40.9 µM) in experiment [2] (48 h); 2 µg/mL (≈ 5.12 µM) in experiment [3]; 4 to 8 µg/mL (≈ 10.2 to 20.5 µM) in experiment [4] (24 h). In addition, the minimal inhibitory concentration (MIC) in experiment [4] (48 h) was 16 µg/mL (≈ 40.9 µM); in experiment [5] (24 h) it was 4 to 8 µg/mL (≈ 10.2 to 20.5 µM); in experiment [5] (48 h), 8 µg/mL (≈ 20.5 µM); in experiment [6], 1 to 16 µg/mL (≈ 2.56 to 40.9 µM). In addition, the MFC is 8 to 32 µg/mL (≈ 20.5 to 81.8 µM) in experiment [1] (48 hr), 16 to 32 µg/mL (≈ 40.9 to 81.8 µM) in experiment [2], 2 to 8 µg/mL (≈ 5.12 to 20.5 µM) in experiment [3] and 8 to 16 µg/mL (≈ 20.5 to 40.9 µM) in experiment [6]. The MIC50 was 4 µg/mL (≈ 10.2 µM) in experiment [2] (24 h); 8 µg/mL (≈ 20.5 µM) in experiment [2] (48 h); 2 to 4 µg/mL (≈ 5.12 to 10.2 µM) in experiment [4] (24 h); 8 µg/mL (≈ 20.5 µM) in experiment [4] (48 h); 4 µg/mL (≈ 10.2 µM) in experiment [5] (24 h); 4 to 8 µg/mL (≈ 10.2 to 20.5 µM) in experiment [5] (48 h).

As for `c1ccc(Oc2cccc(CNc3ncnc4ccccc34)c2)cc1` [BM, N-(3-Phenoxybenzyl)quinazolin-4-amine], the “Reduction in viable THP-1 cell count (percent change) from 0 hours, Mean ± SE” value is reported as −3.96 ± 0.82% in experiment [7] (Compound (0.1 μM), No LPS); −25.80 ± 3.26% in experiment [7] (Compound (0.1 μM), Plus LPS); −4.18 ± 2.46% in experiment [7] (Compound (1.0 μM), No LPS); −39.17 ± 2.18% in experiment [7] (Compound (1.0 μM), Plus LPS). In addition, the “ability to inactivate pro-inflammatory THP-1 cells, in words (relative to benchmark AC)” value in experiment [7] (LPS-treated THP-1 cells) is recorded as “higher activity than the active benchmark compound AC”.

As for `CCCCCCOCCCCCCCCCCNc1ccnc2ccccc12` [Compound AL, N-[10-(Hexyloxy)decyl]quinolin-4-amine], the MIC in experiment [1] (24 hr) was 2 to 4 µg/mL (≈ 5.2 to 10.4 µM); in experiment [1] (48 hr) it was 2 to 4 µg/mL (≈ 5.2 to 10.4 µM); in experiment [2] (24 h), 2 µg/mL (≈ 5.2 µM); in experiment [2] (48 h), 4 µg/mL (≈ 10.4 µM); in experiment [3], 2 µg/mL (≈ 5.2 µM); in experiment [4] (24 h), 2 µg/mL (≈ 5.2 µM). For the same compound, the MIC was 4 µg/mL (≈ 10.4 µM) in experiment [4] (48 h), 4 µg/mL (≈ 10.4 µM) in experiment [5] (24 h), 8 µg/mL (≈ 20.8 µM) in experiment [5] (48 h) and 1 to 4 µg/mL (≈ 2.6 to 10.4 µM) in experiment [6]. The MFC in experiment [1] (48 hr) is 4 to 8 µg/mL (≈ 10.4 to 20.8 µM); in experiment [2], 4 µg/mL (≈ 10.4 µM); in experiment [3], 2 to 4 µg/mL (≈ 5.2 to 10.4 µM); in experiment [4], 4 to 32 µg/mL (≈ 10.4 to 83.2 µM); in experiment [6], 2 to 4 µg/mL (≈ 5.2 to 10.4 µM). Further, the MIC50 in experiment [2] (24 h) was 2 µg/mL (≈ 5.2 µM); in experiment [2] (48 h), 2 to 4 µg/mL (≈ 5.2 to 10.4 µM); in experiment [4] (24 h), 2 µg/mL (≈ 5.2 µM); in experiment [4] (48 h) it was 2 to 4 µg/mL (≈ 5.2 to 10.4 µM); in experiment [5] (24 h), 4 µg/mL (≈ 10.4 µM); in experiment [5] (48 h), 4 to 8 µg/mL (≈ 10.4 to 20.8 µM). Further, the “cidal activity (MFC within 4 dilutions of the MIC), in words” value in experiment [4] (3 strains) was “cidal against one of the A. fumigatus strains (MRL 28397)”.

As for `CCCCCCOCCCCCCCCNc1ccnc2c(Cl)cccc12` [Compound AX, 8-Chloro-N-[8-(hexyloxy)octyl]quinolin-4-amine], the minimal inhibitory concentration (MIC) in experiment [1] (24 hr) was 0.5 to 4 µg/mL (≈ 1.28 to 10.2 µM); in experiment [1] (48 hr) it was 2 to 4 µg/mL (≈ 5.12 to 10.2 µM); in experiment [2] (24 h), 8 µg/mL (≈ 20.5 µM); in experiment [2] (48 h) it was 8 µg/mL (≈ 20.5 µM); in experiment [3], 0.5 to 4 µg/mL (≈ 1.28 to 10.2 µM); in experiment [4] (24 h), 0.5 to 1 µg/mL (≈ 1.28 to 2.56 µM). In addition, the minimum inhibitory concentration (MIC) in experiment [4] (48 h) fell in the range of 4 to 8 µg/mL (≈ 10.2 to 20.5 µM); in experiment [5] (24 h), 1 to 2 µg/mL (≈ 2.56 to 5.12 µM); in experiment [5] (48 h) it was 1 to 2 µg/mL (≈ 2.56 to 5.12 µM); in experiment [6], 0.25 to 8 µg/mL (≈ 0.639 to 20.5 µM). Further, the MFC in experiment [1] (48 hr) is 4 to 32 µg/mL (≈ 10.2 to 81.8 µM); in experiment [2] it was 8 to 64 µg/mL (≈ 20.5 to 164 µM); in experiment [3] it was 4 to 8 µg/mL (≈ 10.2 to 20.5 µM); in experiment [4], above 64 µg/mL; in experiment [5] (range over Rhizopus strains, in 48 hr), above 64 µg/mL; in experiment [6], 2 to 8 µg/mL (≈ 5.12 to 20.5 µM). Besides, the MIC50 in experiment [2] (24 h) is 2 µg/mL (≈ 5.12 µM); in experiment [2] (48 h), 8 µg/mL (≈ 20.5 µM); in experiment [4] (24 h), 0.12 to 0.25 µg/mL (≈ 0.307 to 0.639 µM); in experiment [4] (48 h), 1 to 4 µg/mL (≈ 2.56 to 10.2 µM); in experiment [5] (24 h) it was 0.5 to 1 µg/mL (≈ 1.28 to 2.56 µM); in experiment [5] (48 h) it was 1 µg/mL (≈ 2.56 µM). Besides, the “MIC at 50% inhibition” value in experiment [3] is 0.12-2. The “cidal activity (MFC within 4 dilutions of the MIC), in words” value in experiment [3] (3 isolates) is listed as “cidal against all 3 neoformans isolates”.

The record behind these values is patent publication US20250034139A1, “AMINE COMPOUNDS HAVING ANTI-INFLAMMATORY, ANTIFUNGAL, ANTIPARASITIC, AND ANTICANCER ACTIVITY” (PHARMA CINQ, LLC, priority 2013, published 2025).
